Measurements reported in patent publication US7476767B2, “Alpha-hydroxy sulfonate aldehydes, germicidal compositions containing the alpha-hydroxy sulfonate aldehydes, or mixtures of alpha-hydroxy sulfonate aldehydes and phthalaldehydes, and methods of using the compounds or compositions for disinfection or sterilization” (Ethicon, Inc., priority 2004, dated 2009).

Columns and labels:
[1] = system: Mycobacterium terrae bacteria; test: Bacterial suspension test; assay type: cell-based; conditions: for Log Reductions/mL: 20° C.; for Germicidal Efficacy: Table 14 summary
Method: In this test method, 9 mL of the germicide to be tested is placed in a tube, put into a water bath and allowed to come to the desired temperature. One mL of the test organism, including at least 7 logs/mL of Mycobacterium terrae bacteria, is added to the 9 mL of the germicide to be tested. […] It will be appreciated by those skilled in the art that other concentrations may be utilized by proper dilution and accounting. At appropriate time intervals, 1 mL aliquots of the germicide-cell suspension were removed and added directly into 9 mL of a 1% glycine solution (neutralizer) and mixed thoroughly to neutralize the germicide in the transferred suspension. The glycine solution was prepared from solid glycine, which is available from VWR Scientific Products, among others. The above-identified 10 mL neutralized solution was then poured through a membrane filter having an average pore size of 0.45 micrometers. The filter was then rinsed twice with at least 150 mL of the 1% glycine solution per rinse. The filter was then placed on an agar plate and incubated for twenty-one days at 37° C. In the above procedure, if dilution was needed, then the 1 mL germicidal-cell suspension was diluted in 99 mL of a phosphate buffer before addition to the 9 mL of the 1% glycine solution. The phosphate buffer was DiLu-LoK™ Butterfields Phosphate Buffer, available from Hardy Diagnostics, of Santa Maria, Calif. The surviving colonies are then counted. The data is plotted as S/So vs. time. So is the initial count of the bacteria in the above 10 mL solution which is at least 10^6 bacteria/mL, and S is the surviving bacteria from the above filter on the agar plate. The results of the experiments were presented in terms of log reductions. Log reduction is the difference between log(So) and log(S). As one example, if log(So)=6.2, and if there were 100 survivors, then the log(S)=2, and the log reduction was reported as 4.2.

[2] = Solubility in water; assay type: physicochemical

Which “Log Reductions/mL” value ([1]; 2.7 w/v % in 20% isopropanol, 5 min) does the source give for O=Cc1ccc(Cl)cc1C=O [4-chloro-phthalaldehyde] here?
Its value is “Total Kill”.

For O=Cc1ccccc1C(O)S(=O)(=O)[O-].[Na+] (centres unmarked) [(2-formyl-phenyl)-hydroxy-methane sulfonic acid,sodium salt], which “Log Reductions/mL” value ([1]; 9.1%, 5 min) is on record?
The value was “Confluent”.

With O=Cc1ccccc1C=O [OPA, phthalaldehyde] as the molecule, how does the “Germicidal Efficacy” value [1] read?
The value was “Good”.

What about the solubility in water [2] of the same molecule?
Its solubility in water is “about 5 % by weight”.

With O=Cc1cccc(C=O)c1 [IPA, isophthalaldehyde] as the molecule, how does the “Log Reductions/mL” value ([1]; Table 11: 0.3%, dissolved in 20% isopropanol, 5 min) read?
The value was “Confluent”.

What about the “Germicidal Efficacy” value [1] of the same molecule?
The value was “Poor”.

And the “Log Reductions/mL” value ([1]; Table 15: 0.3%, dissolved in 20% isopropanol, 5 min)?
Its value is “Confluent”.

With 4-pyridinyl-propanedial as the molecule, how does the “Log Reductions/mL” value ([1]; Saturated (~2.3% w/v), 5 min) read?
Its value is 4.0 log reductions/mL.

With O=Cc1ccc(C=O)cc1 [TPA, terephthalaldehyde] as the molecule, how does the “Log Reductions/mL” value ([1]; 0.2%, dissolved in 20% isopropanol, 5 min) read?
The value was “Confluent”.

And the “Germicidal Efficacy” value [1]?
Its value is “Poor”.

With O=CC(C=O)c1ccccc1 [phenyl-propanedial] as the molecule, how does the “Log Reductions/mL” value ([1]; Table 15: ~1%, 5 min) read?
Its value is 4.5 log reductions/mL.

And the solubility in water [2]?
The solubility in water was “about 1%”.

For O=Cc1ccc(Br)cc1C=O [4-bromo-phthalaldehyde], which “Log Reductions/mL” value ([1]; 0.1%, 30 min exposure) is on record?
The value was “Total Kill”.

For O=Cc1ccc(F)cc1C=O [4-fluoro-phthalaldehyde], which “Log Reductions/mL” value ([1]; 0.25%, 60 min exposure) is on record?
Its value is “Total Kill”.
